Data set [1] in a line: Comparative surface tension of peptides in water for injection. The format is physicochemical. The conditions noted are these: 10 mg/ml in WFI.
Data set [2] can be described thus: Solubility of COR005 acetate in aqueous media with additives at 25° C. In kind it is physicochemical. The conditions noted are these: read-out: Solubility of COR005 Acetate (mg/ml) at 25° C. An excerpt:
Table 3 summarizes the solubility values of COR005 acetate in various aqueous media, the effects of additives such as DEX and HPB on the peptide solubility in saline and physiological conditions, as well as the PK profile of IR and MS formulations prepared with these additives in comparison to COR005 without additives as control.
Note that both media (PBS or Saline) contained physiological concentrations of chloride which indicates the incompatibility and salting out of the peptide in the presence of the chloride ion.
The relatively high solubility of COR005 acetate in 5% dextrose (in water) of greater than 500 mg/ml indicates the improved solubility of the peptide in water with dextrose. […] Note that this 1:1 diluted dextrose in saline was used as a vehicle in the IR study of COR005 acetate in rats and minipigs (the DEX:PEP ratio was 5:1).

A short description of data set [3]: Solubility and surface activity in PBS under physiological conditions (37° C.). In kind it is physicochemical. The conditions noted are these: COR005 10 mg/ml; for Surface tension (dyne/cm) / Effect of surface tension (% of baseline): PBS pH 7.4, 37° C.; for solubility: PBS, pH 7.4, PBS pH 7.4, 37° C. The procedure: Table 6 summarizes the effects of additives on the surface activity profile of COR005 acetate under physiological conditions (37° C.) that emulate the release of COR005 at the injection site.

A short description of data set [4]: Peptide content, encapsulation efficiency and residual additives of microspheres. In kind it is physicochemical. The conditions noted are these: Example 7 PLGA 50:50 (7-17 kDa) microspheres. An excerpt:
These observations and conclusion are supported by the analysis of the residual HPB concentration in the MS formulations of HPB. Indeed, the analytical data (see below) confirms that the same ratio of HPB:PEP were maintained in the final MS of HPB and therefore verifying the conditions and data of Table 6.
Therefore, unlike the case of HPB, the effect of the DEX on the COR005 surface activity at the injection site seems to be negligible. The effect for the DEX is addressed in the SEM analysis section below.
Tables 19 and 20 summarize the peptide content and encapsulation efficiency (EE) of bulk samples of microspheres, measured by HPLC.
PLGA microspheres containing veldoreotide acetate were prepared. 500 mg of PLGA 50:50 (7-17 kDa) was dissolved in 5 mL dichloromethane oil phase). An aqueous solution contacting 50 mg of veldoreotide acetate in 1 ml of DDW prepared separately (inner aqueous phase). The first aqueous phase was emulsified into the oil phase (containing PLGA), using a high-speed homogenizer (Polytron) at 2-8° C. using different speeds and time durations to form water in oil primary emulsion. The primary emulsion was added (drop wise) into the 100 ml of external aqueous phase containing 1% PVA solution in PBS to form secondary emulsion. […]

Data set [5] relates to human Carcinoid cell line. As to the kind of experiment: Chromogranin A release. In kind it is cell-based.
In a further data set the test system is human lymphocytes. As to the kind of experiment: Human peripheral blood lymphocytes proliferation assays. The format is cell-based.
Data set [6] can be described thus: Quantitative assessment of veldoreotide acetate solubility by HPLC. The conditions noted are these: read-out: Solubility (g/liter) - HPLC. The format is physicochemical. An excerpt: The solubility of veldoreotide acetate in aqueous media was screened by the following method. A fixed amount of 10 milligrams of the peptide was weighed and dissolved at ambient temperature by increased (incremental) volumes of the tested medium until a complete solubility was observed, i.e, clear/transparent solution and absence of any precipitates (the solubility endpoint values were defined according to USP guidance). Following the results of the screening studies, several media were selected for verification studies based on quantitative assessment of the peptide concentration by HPLC (maximal solubility). The results of the screening study are depicted in Table 1 while the results of the verification studies are included in Table 2.

Data set [7] has as its system CHO-cells expression cloned human SST-R5. In words: Growth inhibition of CHO cells. The format is cell-based.

The text below walks through data of US10398751B2, “Pharmaceutical compositions of water soluble peptides with poor solubility in isotonic conditions and methods for their use” (STRONGBRIDGE IRELAND LIMITED, priority 2016, dated 2019).

Converted amounts (≈) assume the structure as drawn. Structures can show the parent of a compound that is named as a salt.

With `C[C@@H](O)[C@@H]1NC(=O)[C@H](CCCCN)NC(=O)[C@@H](Cc2c[nH]c3ccccc23)NC(=O)[C@H](Cc2c[nH]c3ccccc23)NC(=O)[C@H](Cc2ccccc2)NC(=O)CCCNC(=O)CCCN(CC(N)=O)C(=O)[C@H](Cc2ccccc2)NC1=O` [Veldoreotide, cyclo(-γ-aminobutyryl-L-phenylalanyl-L-tryptophanyl-D-tryptophanyl-L-lysyl-L-threonyl-L-phenylalanyl-N-carbamoylmethyl-γ-aminobutyryl)], the “Effect of reduced surface tension (%)” value in data set [1] (baseline WFI) is −37%. Also, the “Water surface tension (dyne/cm)” value in data set [1] (baseline WFI 52) stood at 33 dyne/cm. The solubility in data set [2] (isotonic 5% dextrose in water, 5% Dextrose Isotonic, additives none) was over 500 mg/mL; in data set [3] (Dextrose 5 wt %) it was 3300 µg/mL (≈ 2.94 mM); in data set [3] (HPB:PEP 1:2), 5000 µg/mL (≈ 4.45 mM); in data set [3] (HPB:PEP 1:4), 3900 µg/mL (≈ 3.47 mM); in data set [3] (HPB:PEP 10:1), 8900 µg/mL (≈ 7.92 mM); in data set [3] (no additive) it was 3600 µg/mL (≈ 3.2 mM). Also, the figures for the “Surface tension (dyne/cm)” value in data set [3] (Dextrose 5 wt %), in data set [3] (HPB:PEP 1:2) and in data set [3] (HPB:PEP 10:1) were 49 dyne/cm, 45 dyne/cm and 50 dyne/cm, respectively. The “Effect of surface tension (% of baseline)” value in data set [3] (Dextrose 5 wt %, at 48 h) is given as “(−18% at 48 h)”; in data set [3] (Dextrose 5 wt %, baseline PBS/5% DEX) it was −14%; in data set [3] (HPB:PEP 1:2, baseline PBS), −6%; in data set [3] (HPB:PEP 1:4, baseline PBS) it was −19%; in data set [3] (HPB:PEP 10:1, baseline PBS), “+4%”; in data set [3] (no additive, baseline PBS), −29%.
As to `C[C@@H](O)[C@@H]1NC(=O)[C@H](CCCCN)NC(=O)[C@@H](Cc2c[nH]c3ccccc23)NC(=O)[C@H](Cc2c[nH]c3ccccc23)NC(=O)[C@H](Cc2ccccc2)NC(=O)CCCNC(=O)CCCN(CC(N)=O)C(=O)[C@H](Cc2ccccc2)NC1=O` [Veldoreotide Acetate, Cyclo(-γ-aminobutyryl-L-phenylalanyl-L-tryptophanyl-D-tryptophanyl-L-lysyl-L-threonyl-L-phenylalanyl-N-carbamoylmethyl-γ-aminobutyryl), acetate salt], the “encapsulation efficiency (EE) %” value in data set [4] came to 77%. The “final drug load in microspheres” value in data set [4] is listed as 6 weight %. For the same molecule, in data set [5], the “Chromogranin A release” value is on record as “inhibits”. Also, the “mitogenicity for human lymphocytes” value with human lymphocytes is listed as “non-mitogenic”. Also, the solubility in data set [6] (20 mM HEPES buffer, 20 mM HEPES, pH 7.2) was 212 g/L; in data set [6] (20 mM phosphate buffer, 20 mM Phosphate (10 mM Na2HPO4 + 10 mM NaH2PO4), pH 7.2) it was 212 g/L; in data set [6] (0.9% NaCl, pH 4.5), 2.31 g/L; in data set [6] (PBS, pH 7.4) it was 3.25 g/L; in data set [6] (water) it was 234 g/L; in data set [2] (0.45% NaCl with […] dextrose (isotonic), Isotonic 0.45NS (0.45% NaCl) 2.5D Dextrose […], DEX:PEP 5:1) it was 6 to 7 mg/mL. Also, the solubility in data set [2] (0.45% NaCl, 0.45NS - 0.45% NaCl, additives none) is 3 mg/mL; in data set [2] (5% dextrose in water (isotonic), 5% Dextrose Isotonic, additives none), at least 300 mg/mL; in data set [2] (isotonic PBS pH 7.4, pH 7.4, PBS pH 7.4 Isotonic, HPB:PEP 1:1), 4.5 mg/mL; in data set [2] (isotonic PBS pH 7.4, pH 7.4, PBS pH 7.4 Isotonic, HPB:PEP 1:4), 2.5 mg/mL; in data set [2] (isotonic PBS pH 7.4, pH 7.4, PBS pH 7.4 Isotonic, HPB:PEP 10:1), 10 mg/mL; in data set [2] (isotonic PBS with HPB, pH 7.4, PBS pH 7.4 Isotonic, HPB:PEP 1:2), 2.5 mg/mL. For the same molecule, the solubility was 2 mg/mL in data set [2] (isotonic PBS with dextrose, pH 7.4, PBS pH 7.4 Isotonic, DEX:PEP 1:8); 1.6 mg/mL in data set [2] (isotonic PBS with dextrose, pH 7.4, PBS pH 7.4 Isotonic, DEX:PEP 5:1); 10 mg/mL in data set [2] (isotonic saline, Saline Isotonic, HPB:PEP 15:1); 1.7 mg/mL in data set [2] (isotonic saline, Saline Isotonic, Lys-HCl:PEP 4:1); 500 mg/mL in data set [2] (lactic acid buffer pH 4.0, isotonic, pH 4, Lactic acid buffer pH 4.0 Isotonic, MAN:PEP 20:1, HPB:PEP 15:1, Est. = estimated by UV-Vis); 500 mg/mL in data set [2] (lactic acid buffer pH 4.0, isotonic, pH 4, Lactic acid buffer pH 4.0 Isotonic, Mannitol MAN:PEP 20:1, Est. = estimated by UV-Vis). Also, the solubility in data set [2] (normal saline (0.9% NaCl), NS - 0.9% NaCl, additives none) was 1 to 2 mg/mL; in data set [2] (water, additives none), at least 300 mg/mL. Further, the “Surface tension (dyne/cm)” value came to 39 dyne/cm in data set [3] (HPB:PEP 1:4) and 34 dyne/cm in data set [3] (no additive). The growth inhibition result in data set [7] is recorded as “significant growth inhibition”.
